Source: patent US20110166223A1, “METHODS OF INHIBITING FGFR3 SIGNALING” (CEDARS-SINAI MEDICAL CENTER, priority 2008, published 2011)

Tests used:
[1] = tested on: FGF2-mediated extracellular matrix loss in RCS chondrocytes; experiment: Alcian blue staining of extracellular matrix in RCS chondrocytes; format: cell-based, rat; details: FGF2 5 ng/ml, NF449 20 μM, 72 hours, FIG. 2a
Experimental: For Alcian blue staining, growing RCS cultures were treated with FGF2 (5 ng/ml) alone or in the presence of NF449 (20 μM) for 72 hours, fixed with 4% paraformaldehyde and stained for 30 minutes with Alcian blue. For quantification of the FGF2/FGFR3-mediated extracellular matrix loss, RCS chondrocytes were treated with FGF2 (5 ng/ml) and NF449 (20 μM) for 72 hours in the presence of 10 μCi/ml of [^35S]sulfate (Perkin Elmer, Boston, Mass.). Following the cultivation period, cells were harvested and the incorporated radioactivity was determined by liquid scintillation.
Apart from the growth arrest, aberrant FGFR3 signaling in chondrocytes leads to the loss of their extracellular matrix, rich in sulfated proteoglycans, due to inhibition of matrix synthesis as well as degradation of the existing matrix. The inventors therefore evaluated whether NF449 rescues the extracellular matrix loss induced by FGFR3 activation. […] Similar to previous findings, this matrix was lost after the 72-hours of FGF2 treatment. […] To further confirm this observation, cells were incubated with [^35S]sulfate for 72 hours to label the extracellular matrix and determined the effect of FGF2 and NF449 on the cell-bound radioactivity.

[2] = tested on: CCL3 and CCL4 expression in OPM2 cells; experiment: Real-time RT-PCR of FGF2/FGFR3-induced CCL3 and CCL4 expression; format: cell-based; details: NF449 one hour before FGF2, FIG. 3b
Experimental: FIG. 3, in accordance with an embodiment herein, depicts 4,4′,4″,4′″-[carbonyl-bis[imino-5,1,3-benzenetriyl bis-{carbonylimino}]]tetrakis-{benzene-1,3-disulfonic acid} inhibits FGF2/FGFR3 signaling in MM cell lines OPM2 and KMS11. (a) KMS11 and OPM2 cells were serum-starved for 12 hours, treated with 4,4′,4″,4′″-[carbonyl-bis[imino-5,1,3-benzenetriyl bis-{carbonylimino}]]tetrakis-{benzene-1,3-disulfonic acid} for one hour before the treatment with FGF2 and the levels of ERK MAP kinase phosphorylation were determined by western blotting with the P-ERK1/2(Thr^202/Tyr^204) antibody. As a loading control, the membranes were reprobed with antibody recognizing ERK regardless of its phosphorylation. Note the FGF2-mediated ERK phosphorylation is inhibited by 4,4′,4″,4′″-[carbonyl-bis[imino-5,1,3-benzenetriyl bis-{carbonylimino}]]tetrakis-{benzene-1,3-disulfonic acid} in both KMS11 and OPM2 cells. (b) The OPM2 cells were serum starved for 12 hours, pre-treated with 4,4′,4″,4′″-[carbonyl-bis[imino-5,1,3-benzenetriyl bis-{carbonylimino}]]tetrakis-{benzene-1,3-disulfonic acid} for one hour before FGF2 treatment, and analyzed for CCL3 and CCL4 expression by real-time RT-PCR as described herein. The results are expressed as the fold difference relative to control (2^ddCt). Note the FGF2-mediated induction of CCL3 and CCL4 that is inhibited by 4,4′,4″,4′″-[carbonyl-bis[imino-5,1,3-benzenetriyl bis-{carbonylimino}]]tetrakis-{benzene-1,3-disulfonic acid}. The data represent two independent samples, each run as a technical duplicate, with the indicated range. The results are representative for three experiments.
Total RNA was isolated using the RNeasy Mini Kit (Qiagene, Valencia, Calif.) and poly-dT-primed cDNA was synthesized from 3 μg of RNA using Omniscript RT kit (Qiagene). Real-time RT-PCRs were carried out as described in detail elsewhere, using Dynamo SYBR Green qPCR chemistry (Finnzymes, Espoo, Finland). The PCR primers were the following (5′ to 3′; product size): CCL3 (SEQ. ID. NO.: 1 and SEQ. ID. NO.: 2), 192 bp; CCL4 (SEQ. ID, NO.: 3 and SEQ. ID. NO.: 4), 214 bp; ACTIN (SEQ. ID. NO.: 5 and SEQ. ID. NO.: 6), 245 bp. The results are expressed as fold difference relative to control (2^ddCt).
Since MM represents another area of pathological FGFR3 signaling in viva, the inventors evaluated whether NF449 inhibits FGFR3 signaling in KMS11 and OPM2 MM cell lines. OPM2 and KMS11 cells overexpress FGFR3 carrying the strongly activating mutations Y373C or K650E and thus serve as an in vitro model for oncogenic FGFR3 signaling in MM [14]. […] As the CCL3 ([…]) and CCL4 (MIP-1β) chemokines were previously identified as transcriptional targets of FGFR3 signaling in MM [16], the inventors determined the effect of NF449 on the FGF2/FGFR3-induced expression of CCL3 and CCL4.

[3] = tested on: limb growth and size of cultured embryos; experiment: Embryo limb culture; details: 30 μM; embryos cultured for six (6) days; FIG. 8
Text: FIG. 8, in accordance with an embodiment herein, depicts embryos cultured for six (6) days.

[4] = listed as 4,4′,4″,4′″-[carbonyl-bis[imino-5,1,3-benzenetriyl bis-{carbonylimino}]]tetrakis

For `O=C(Nc1cc(C(=O)Nc2ccc(S(=O)(=O)O)cc2S(=O)(=O)O)cc(C(=O)Nc2ccc(S(=O)(=O)O)cc2S(=O)(=O)O)c1)Nc1cc(C(=O)Nc2ccc(S(=O)(=O)O)cc2S(=O)(=O)O)cc(C(=O)Nc2ccc(S(=O)(=O)O)cc2S(=O)(=O)O)c1` [NF449, 4,4′,4″,4′″-[carbonyl-bis[imino-5,1,3-benzenetriylbis-{carbonylimino}]]tetrakis-{benzene-1,3-disulfonic acid}], the “FGF2-induced cellular shape change” value [1] was “rescued”, the “FGF2-mediated extracellular matrix loss, Alcian blue staining” value [1] was “equaled that of the control cells” and the “FGF2-mediated extracellular matrix loss, Alcian blue staining” value [1, 4] was “reversed”. The “FGF2-mediated upregulation of CCL3 transcripts” value [2] was “significantly blocked”, the “FGF2-mediated upregulation of CCL4 transcripts” value [2] was “significantly blocked” and the “FGF2-mediated upregulation of CCL3 transcripts” value [2, 4] was “inhibited”. The “FGF2-mediated upregulation of CCL4 transcripts” value [2, 4] was “inhibited” and the “limb growth and size” value [3] was “greater limb growth and size”.
